In paper PMC6886798, “Expression of myeloid Src-family kinases is associated with poor prognosis in AML and influences Flt3-ITD kinase inhibitor acquired resistance” (PLoS ONE, 2019):

Assays:
Assay in all cases: KINOMEscan
Assay type in all cases: binding
Details in all cases: 1.0 µM
[1] = target: T1, NDR2 (Homo sapiens, UniProt Q9Y2H1)
T1 construct: purchased Eurofins/DiscoverX KINOMEscan scanMAX
Description: (§1) Kinase retention to the immobilized ligand is then measured using quantitative real-time PCR for each kinase-specific DNA barcode.

[2] = target: T2, PFTAIRE2 (Homo sapiens, UniProt Q96Q40)
T2 construct: purchased Eurofins/DiscoverX KINOMEscan scanMAX
Description: as §1

[3] = target: T3, CLK4 (Homo sapiens, UniProt Q9HAZ1)
T3 construct: purchased Eurofins/DiscoverX KINOMEscan scanMAX
Description: as §1

[4] = target: T4, FLT3(R834Q) (Homo sapiens, UniProt P36888, R834Q)
T4 construct: purchased Eurofins/DiscoverX KINOMEscan scanMAX
Description: as §1

[5] = target: T5, ALK (Homo sapiens, UniProt Q9UM73)
T5 construct: purchased Eurofins/DiscoverX KINOMEscan scanMAX
Description: as §1

[6] = target: T6, PAK4 (Homo sapiens, UniProt O96013)
T6 construct: purchased Eurofins/DiscoverX KINOMEscan scanMAX
Description: as §1

[7] = target: T7, ABL1(Y253F)-phosphorylated (Homo sapiens, UniProt P00519, Y253F)
T7 construct: purchased Eurofins/DiscoverX KINOMEscan scanMAX
Description: as §1

[8] = target: T8, MEK4 (Homo sapiens, UniProt P45985)
T8 construct: purchased Eurofins/DiscoverX KINOMEscan scanMAX
Description: as §1

[9] = target: T9, NIM1 (Homo sapiens, UniProt Q8IY84)
T9 construct: purchased Eurofins/DiscoverX KINOMEscan scanMAX
Description: as §1

[10] = target: T10, PCTK1 (Homo sapiens, UniProt Q00536)
T10 construct: purchased Eurofins/DiscoverX KINOMEscan scanMAX
Description: as §1

[11] = target: T11, PFTK1 (Homo sapiens, UniProt O94921)
T11 construct: purchased Eurofins/DiscoverX KINOMEscan scanMAX
Description: as §1

[12] = target: T12, STK35 (Homo sapiens, UniProt Q8TDR2)
T12 construct: purchased Eurofins/DiscoverX KINOMEscan scanMAX
Description: as §1

[13] = target: T13, BMPR1A (Homo sapiens, UniProt P36894)
T13 construct: purchased Eurofins/DiscoverX KINOMEscan scanMAX
Description: as §1

[14] = target: T14, CSNK2A1 (Homo sapiens, UniProt P68400)
T14 construct: purchased Eurofins/DiscoverX KINOMEscan scanMAX
Description: as §1

[15] = target: T15, CTK (Homo sapiens, UniProt P42679)
T15 construct: purchased Eurofins/DiscoverX KINOMEscan scanMAX
Description: as §1

[16] = target: T16, CDK3 (Homo sapiens, UniProt Q00526)
T16 construct: purchased Eurofins/DiscoverX KINOMEscan scanMAX
Description: as §1

[17] = target: T17, MAP3K15 (Homo sapiens, UniProt Q6ZN16)
T17 construct: purchased Eurofins/DiscoverX KINOMEscan scanMAX
Description: as §1

[18] = target: T18, CSNK1E (Homo sapiens, UniProt P49674)
T18 construct: purchased Eurofins/DiscoverX KINOMEscan scanMAX
Description: as §1

[19] = target: T19, MAK (Homo sapiens, UniProt P20794)
T19 construct: purchased Eurofins/DiscoverX KINOMEscan scanMAX
Description: as §1

[20] = target: T20, ERBB2 (Homo sapiens, UniProt P04626)
T20 construct: purchased Eurofins/DiscoverX KINOMEscan scanMAX
Description: as §1

[21] = target: T21, NEK2 (Homo sapiens, UniProt P51955)
T21 construct: purchased Eurofins/DiscoverX KINOMEscan scanMAX
Description: as §1

[22] = target: T22, SIK (Homo sapiens, UniProt P57059)
T22 construct: purchased Eurofins/DiscoverX KINOMEscan scanMAX
Description: as §1

[23] = target: T23, GRK3 (Homo sapiens, UniProt P35626)
T23 construct: purchased Eurofins/DiscoverX KINOMEscan scanMAX
Description: as §1

[24] = target: T24, RIOK1 (Homo sapiens, UniProt Q9BRS2)
T24 construct: purchased Eurofins/DiscoverX KINOMEscan scanMAX
Description: as §1

[25] = target: T25, CDK5 (Homo sapiens, UniProt Q00535)
T25 construct: purchased Eurofins/DiscoverX KINOMEscan scanMAX
Description: as §1

[26] = target: T26, PCTK3 (Homo sapiens, UniProt Q07002)
T26 construct: purchased Eurofins/DiscoverX KINOMEscan scanMAX
Description: as §1

[27] = target: T27, PRKG1 (Homo sapiens, UniProt Q13976)
T27 construct: purchased Eurofins/DiscoverX KINOMEscan scanMAX
Description: as §1

[28] = target: T28, DYRK2 (Homo sapiens, UniProt Q92630)
T28 construct: purchased Eurofins/DiscoverX KINOMEscan scanMAX
Description: as §1

[29] = target: T29, PIK3CB (Homo sapiens, UniProt P42338)
T29 construct: purchased Eurofins/DiscoverX KINOMEscan scanMAX
Description: as §1

[30] = target: T30, BMPR2 (Homo sapiens, UniProt Q13873)
T30 construct: purchased Eurofins/DiscoverX KINOMEscan scanMAX
Description: as §1

[31] = target: T31, LRRK2 (Homo sapiens, UniProt Q5S007)
T31 construct: purchased Eurofins/DiscoverX KINOMEscan scanMAX
Description: as §1

[32] = target: T32, HIPK3 (Homo sapiens, UniProt Q9H422)
T32 construct: purchased Eurofins/DiscoverX KINOMEscan scanMAX
Description: as §1

[33] = target: T33, RIPK4 (Homo sapiens, UniProt P57078)
T33 construct: purchased Eurofins/DiscoverX KINOMEscan scanMAX
Description: as §1

[34] = target: T34, ABL1(H396P)-phosphorylated (Homo sapiens, UniProt P00519, H396P)
T34 construct: purchased Eurofins/DiscoverX KINOMEscan scanMAX
Description: as §1

[35] = target: T35, PDGFRB (Homo sapiens, UniProt P09619)
T35 construct: purchased Eurofins/DiscoverX KINOMEscan scanMAX
Description: as §1

[36] = target: T36, STK39 (Homo sapiens, UniProt Q9UEW8)
T36 construct: purchased Eurofins/DiscoverX KINOMEscan scanMAX
Description: as §1

[37] = target: T37, MEK3 (Homo sapiens, UniProt P46734)
T37 construct: purchased Eurofins/DiscoverX KINOMEscan scanMAX
Description: as §1

[38] = target: T38, WEE2 (Homo sapiens, UniProt P0C1S8)
T38 construct: DNA tag (qPCR barcode); purchased Eurofins/DiscoverX KINOMEscan scanMAX
Description: as §1

[39] = target: T39, PCTK2 (Homo sapiens, UniProt Q00537)
T39 construct: purchased Eurofins/DiscoverX KINOMEscan scanMAX
Description: as §1

[40] = target: T40, MTOR (Homo sapiens, UniProt P42345)
T40 construct: purchased Eurofins/DiscoverX KINOMEscan scanMAX
Description: as §1

[41] = target: T41, MLK3 (Homo sapiens, UniProt Q16584)
T41 construct: purchased Eurofins/DiscoverX KINOMEscan scanMAX
Description: as §1

[42] = target: T42, CLK1 (Homo sapiens, UniProt P49759)
T42 construct: purchased Eurofins/DiscoverX KINOMEscan scanMAX
Description: as §1

[43] = target: T43, FLT3-autoinhibited (Homo sapiens, UniProt P36888)
T43 construct: purchased Eurofins/DiscoverX KINOMEscan scanMAX
Description: as §1

T31 sequence (Q5S007 whole entry): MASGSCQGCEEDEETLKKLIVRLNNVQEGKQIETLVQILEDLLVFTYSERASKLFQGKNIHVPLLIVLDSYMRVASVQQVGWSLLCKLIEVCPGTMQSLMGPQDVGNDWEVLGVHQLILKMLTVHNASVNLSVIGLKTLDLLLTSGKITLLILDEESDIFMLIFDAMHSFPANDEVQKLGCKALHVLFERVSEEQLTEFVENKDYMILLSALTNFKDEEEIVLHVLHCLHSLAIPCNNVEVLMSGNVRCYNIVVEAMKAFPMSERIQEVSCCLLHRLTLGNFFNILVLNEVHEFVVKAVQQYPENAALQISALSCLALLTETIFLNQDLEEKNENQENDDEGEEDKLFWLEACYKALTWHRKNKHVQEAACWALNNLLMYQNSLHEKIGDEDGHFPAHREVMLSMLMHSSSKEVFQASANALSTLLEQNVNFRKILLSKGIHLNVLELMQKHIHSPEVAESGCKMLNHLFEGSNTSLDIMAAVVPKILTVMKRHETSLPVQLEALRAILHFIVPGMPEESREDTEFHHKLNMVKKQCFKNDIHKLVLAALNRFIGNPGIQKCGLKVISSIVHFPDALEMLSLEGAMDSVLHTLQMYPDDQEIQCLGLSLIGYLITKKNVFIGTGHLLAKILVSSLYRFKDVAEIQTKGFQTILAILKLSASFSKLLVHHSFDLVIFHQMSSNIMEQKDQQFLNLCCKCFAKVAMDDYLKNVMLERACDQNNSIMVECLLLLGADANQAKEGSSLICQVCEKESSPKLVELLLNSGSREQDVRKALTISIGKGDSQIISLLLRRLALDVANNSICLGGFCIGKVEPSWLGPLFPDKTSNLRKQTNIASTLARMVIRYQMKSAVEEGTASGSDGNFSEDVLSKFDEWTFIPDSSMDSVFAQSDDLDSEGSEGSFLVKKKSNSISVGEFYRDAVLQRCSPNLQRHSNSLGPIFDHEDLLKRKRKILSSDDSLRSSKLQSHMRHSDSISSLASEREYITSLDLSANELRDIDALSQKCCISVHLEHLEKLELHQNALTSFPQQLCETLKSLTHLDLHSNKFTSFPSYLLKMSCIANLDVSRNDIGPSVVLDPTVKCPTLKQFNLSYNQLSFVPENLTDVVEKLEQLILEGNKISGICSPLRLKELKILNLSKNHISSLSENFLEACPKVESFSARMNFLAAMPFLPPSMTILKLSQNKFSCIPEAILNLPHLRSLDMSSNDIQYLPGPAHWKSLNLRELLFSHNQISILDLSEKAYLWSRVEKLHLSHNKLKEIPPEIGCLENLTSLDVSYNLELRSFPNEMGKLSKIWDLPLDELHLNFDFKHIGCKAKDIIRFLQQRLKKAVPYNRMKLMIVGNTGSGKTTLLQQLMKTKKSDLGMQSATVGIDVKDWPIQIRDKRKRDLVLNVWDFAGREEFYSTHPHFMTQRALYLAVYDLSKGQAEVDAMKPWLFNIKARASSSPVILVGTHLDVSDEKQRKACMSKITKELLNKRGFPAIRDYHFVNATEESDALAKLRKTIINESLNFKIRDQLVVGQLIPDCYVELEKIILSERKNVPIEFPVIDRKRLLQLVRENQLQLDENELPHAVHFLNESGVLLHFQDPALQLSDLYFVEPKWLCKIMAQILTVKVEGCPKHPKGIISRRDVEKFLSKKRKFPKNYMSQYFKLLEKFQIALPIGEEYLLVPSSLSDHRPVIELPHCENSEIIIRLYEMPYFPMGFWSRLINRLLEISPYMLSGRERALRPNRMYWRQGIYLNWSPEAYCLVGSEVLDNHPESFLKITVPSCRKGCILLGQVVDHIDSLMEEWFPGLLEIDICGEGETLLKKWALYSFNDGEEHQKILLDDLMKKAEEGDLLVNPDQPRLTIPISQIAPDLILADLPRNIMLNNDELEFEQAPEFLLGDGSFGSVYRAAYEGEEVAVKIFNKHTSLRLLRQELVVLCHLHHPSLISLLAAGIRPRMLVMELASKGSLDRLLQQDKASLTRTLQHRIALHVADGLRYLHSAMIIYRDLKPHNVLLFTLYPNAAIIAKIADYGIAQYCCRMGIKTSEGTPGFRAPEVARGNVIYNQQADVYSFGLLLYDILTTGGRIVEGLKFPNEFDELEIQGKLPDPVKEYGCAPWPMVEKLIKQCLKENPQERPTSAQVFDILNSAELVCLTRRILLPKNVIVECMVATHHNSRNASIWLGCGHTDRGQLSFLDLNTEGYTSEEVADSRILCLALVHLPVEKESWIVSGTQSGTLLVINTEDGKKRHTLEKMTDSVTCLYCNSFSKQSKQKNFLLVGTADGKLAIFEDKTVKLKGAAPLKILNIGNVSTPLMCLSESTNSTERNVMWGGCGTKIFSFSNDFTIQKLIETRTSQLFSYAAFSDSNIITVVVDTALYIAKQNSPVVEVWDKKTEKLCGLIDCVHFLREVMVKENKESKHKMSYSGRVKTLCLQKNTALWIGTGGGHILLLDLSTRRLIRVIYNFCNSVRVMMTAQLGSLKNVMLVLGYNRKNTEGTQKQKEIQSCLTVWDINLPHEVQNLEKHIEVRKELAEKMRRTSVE
T37 sequence (P46734 whole entry): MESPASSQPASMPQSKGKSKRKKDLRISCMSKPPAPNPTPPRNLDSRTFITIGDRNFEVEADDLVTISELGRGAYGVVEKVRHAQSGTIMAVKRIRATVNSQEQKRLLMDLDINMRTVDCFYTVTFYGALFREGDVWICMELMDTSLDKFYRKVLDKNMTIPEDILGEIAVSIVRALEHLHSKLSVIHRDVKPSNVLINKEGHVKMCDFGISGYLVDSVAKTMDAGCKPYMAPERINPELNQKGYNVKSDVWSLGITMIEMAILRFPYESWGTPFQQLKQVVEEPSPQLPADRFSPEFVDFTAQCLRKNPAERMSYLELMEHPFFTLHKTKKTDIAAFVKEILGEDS
T25 sequence (Q00535 whole entry): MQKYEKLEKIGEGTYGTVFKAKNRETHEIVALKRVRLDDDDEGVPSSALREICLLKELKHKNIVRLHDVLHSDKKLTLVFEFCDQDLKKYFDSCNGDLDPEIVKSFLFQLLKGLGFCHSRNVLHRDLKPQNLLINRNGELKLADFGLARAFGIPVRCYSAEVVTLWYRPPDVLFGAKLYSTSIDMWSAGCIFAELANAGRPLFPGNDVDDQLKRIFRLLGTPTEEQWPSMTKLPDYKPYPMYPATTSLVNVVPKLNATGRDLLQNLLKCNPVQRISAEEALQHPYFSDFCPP
T6 sequence (O96013 whole entry): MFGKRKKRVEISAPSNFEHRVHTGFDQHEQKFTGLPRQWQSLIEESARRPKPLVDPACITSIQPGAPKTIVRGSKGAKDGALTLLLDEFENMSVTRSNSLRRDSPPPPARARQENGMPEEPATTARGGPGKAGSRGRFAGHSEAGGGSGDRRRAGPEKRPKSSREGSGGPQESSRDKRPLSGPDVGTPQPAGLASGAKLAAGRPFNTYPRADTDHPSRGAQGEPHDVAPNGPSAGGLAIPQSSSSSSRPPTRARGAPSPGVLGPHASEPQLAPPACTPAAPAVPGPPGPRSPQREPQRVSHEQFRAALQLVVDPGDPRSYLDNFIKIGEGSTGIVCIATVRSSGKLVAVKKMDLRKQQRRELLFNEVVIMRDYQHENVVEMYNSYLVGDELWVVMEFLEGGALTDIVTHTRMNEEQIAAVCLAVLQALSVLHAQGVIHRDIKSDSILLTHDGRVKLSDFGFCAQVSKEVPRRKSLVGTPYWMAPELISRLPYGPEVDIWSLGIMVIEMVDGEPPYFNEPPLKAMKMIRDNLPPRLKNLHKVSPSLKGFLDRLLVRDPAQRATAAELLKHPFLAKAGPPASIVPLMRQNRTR
T18 sequence (P49674 whole entry): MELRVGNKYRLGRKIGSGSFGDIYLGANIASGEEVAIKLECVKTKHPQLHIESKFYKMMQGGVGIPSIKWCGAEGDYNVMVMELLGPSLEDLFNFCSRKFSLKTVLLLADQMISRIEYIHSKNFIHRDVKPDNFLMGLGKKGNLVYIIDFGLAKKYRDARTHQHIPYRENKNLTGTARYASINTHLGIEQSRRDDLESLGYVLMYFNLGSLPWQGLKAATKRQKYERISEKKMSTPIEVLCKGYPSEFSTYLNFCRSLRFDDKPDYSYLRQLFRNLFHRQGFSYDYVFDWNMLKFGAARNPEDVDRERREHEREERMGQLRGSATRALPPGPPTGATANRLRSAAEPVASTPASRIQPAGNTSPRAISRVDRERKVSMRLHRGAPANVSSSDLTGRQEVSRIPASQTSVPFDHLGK
T33 sequence (P57078 whole entry): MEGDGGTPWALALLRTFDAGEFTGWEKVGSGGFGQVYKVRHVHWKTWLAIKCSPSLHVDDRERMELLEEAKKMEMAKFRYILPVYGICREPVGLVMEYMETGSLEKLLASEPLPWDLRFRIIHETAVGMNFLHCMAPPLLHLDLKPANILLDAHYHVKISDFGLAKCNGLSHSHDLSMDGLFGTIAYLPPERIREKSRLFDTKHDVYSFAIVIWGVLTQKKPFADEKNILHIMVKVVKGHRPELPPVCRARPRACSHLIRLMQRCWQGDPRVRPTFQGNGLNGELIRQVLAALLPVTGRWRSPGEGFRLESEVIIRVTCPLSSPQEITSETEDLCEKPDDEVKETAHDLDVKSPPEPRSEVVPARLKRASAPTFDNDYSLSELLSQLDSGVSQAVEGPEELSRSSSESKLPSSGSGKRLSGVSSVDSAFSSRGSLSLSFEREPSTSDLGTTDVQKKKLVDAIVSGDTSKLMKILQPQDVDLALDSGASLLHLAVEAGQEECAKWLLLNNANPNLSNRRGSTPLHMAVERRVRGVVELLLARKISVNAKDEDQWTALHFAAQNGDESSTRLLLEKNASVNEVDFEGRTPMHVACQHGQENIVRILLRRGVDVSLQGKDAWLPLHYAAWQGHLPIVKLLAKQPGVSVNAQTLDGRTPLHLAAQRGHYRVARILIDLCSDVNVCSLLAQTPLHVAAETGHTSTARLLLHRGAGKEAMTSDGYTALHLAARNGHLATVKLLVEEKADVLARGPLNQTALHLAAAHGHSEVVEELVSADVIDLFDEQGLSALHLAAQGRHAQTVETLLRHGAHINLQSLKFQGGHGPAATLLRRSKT

CN1CCN(C2CCC(n3cc(-c4ccc(Oc5ccccc5)cc4)c4c(N)ncnc43)CC2)CC1 (stereo not shown) [A-419259]
% Control [1]: 80% | % Control [2]: 89% | % Control [3]: 100% | % Control [4]: 2.7% | % Control [5]: 29% | % Control [6]: 93% | % Control [7]: 0.35% | % Control [8]: 89% | % Control [9]: 100% | % Control [10]: 99% | % Control [11]: 63% | % Control [12]: 27% | % Control [13]: 100% | % Control [14]: 100% | % Control [15]: 89% | % Control [16]: 99% | % Control [17]: 79% | % Control [18]: 1.1% | % Control [19]: 100% | % Control [20]: 2.7% | % Control [21]: 81% | % Control [22]: 2.1% | % Control [23]: 100% | % Control [24]: 77% | % Control [25]: 83% | % Control [26]: 100% | % Control [27]: 100% | % Control [28]: 100% | % Control [29]: 64% | % Control [30]: 97% | % Control [31]: 98% | % Control [32]: 91% | % Control [33]: 84% | % Control [34]: 0.65% | % Control [35]: 0% | % Control [36]: 100% | % Control [37]: 91% | % Control [38]: 90% | % Control [39]: 59% | % Control [40]: 90% | % Control [41]: 100% | % Control [42]: 100% | % Control [43]: 3.4%
